Test results taken from ChEMBL document CHEMBL3352064, “Synthesis and bioactive evaluation of a novel series of coumarinazoles” (Bioorg Med Chem Lett, 2014).
In brackets after ≈: the same amount, converted by molar mass.

Assays:
[1] = tested on: Micrococcus luteus; assay: Antimicrobial activity against Micrococcus luteus ATCC 4698 by two-fold serial dilution technique; format: functional
[2] = tested on: Pseudomonas aeruginosa; assay: Antimicrobial activity against Pseudomonas aeruginosa by two-fold serial dilution technique; format: functional
[3] = tested on: Aspergillus flavus; assay: Antimicrobial activity against Aspergillus flavus by two-fold serial dilution technique; format: functional
[4] = tested on: Staphylococcus aureus; assay: Antimicrobial activity against methicillin-resistant Staphylococcus aureus N315 by two-fold serial dilution technique; format: functional
[5] = tested on: Shigella dysenteriae; assay: Antimicrobial activity against Shigella dysenteriae by two-fold serial dilution technique; format: functional
[6] = tested on: Saccharomyces cerevisiae; assay: Antimicrobial activity against Saccharomyces cerevisiae by two-fold serial dilution technique; format: functional
[7] = tested on: Escherichia coli; assay: Antimicrobial activity against Escherichia coli JM109 by two-fold serial dilution technique; format: functional
[8] = tested on: Bacillus subtilis; assay: Antimicrobial activity against Bacillus subtilis by two-fold serial dilution technique; format: functional
[9] = n-Octanol-water partition coefficient, log P of the compound after 24 hrs by shake flask method; format: physicochemical
[10] = tested on: Candida albicans; assay: Antimicrobial activity against Candida albicans by two-fold serial dilution technique; format: functional
[11] = tested on: Cyberlindnera jadinii; assay: Antimicrobial activity against Candida utilis by two-fold serial dilution technique; format: functional; settings: Williopsis jadinii
[12] = tested on: Candida; assay: Antimicrobial activity against Candida mycoderma by two-fold serial dilution technique; format: functional

| Structure (SMILES) | MIC [1] [µg/mL] | MIC [2] [µg/mL] | MIC [3] [µg/mL] | MIC [4] [µg/mL] | MIC [5] [µg/mL] | MIC [6] [µg/mL] | MIC [7] [µg/mL] | MIC [8] [µg/mL] | logP at 24 h [9] | MIC [10] [µg/mL] | MIC [11] [µg/mL] | MIC [12] [µg/mL] |
| --- | --- | --- | --- | --- | --- | --- | --- | --- | --- | --- | --- | --- |
| Cc1cc(=O)oc2cc(OCC(O)Cn3cnc4ccccc43)c(OCC(O)Cn3cnc4ccccc43)cc12 (stereo not drawn) | 128 (≈ 237 µM) | 128 (≈ 237 µM) | 512 (≈ 947 µM) | 512 (≈ 947 µM) | > 512 | > 512 | > 512 | > 512 | 0.49 | > 512 | 512 (≈ 947 µM) | 64 (≈ 118 µM) |
| Cc1cc2ncn(CC(O)COc3cc4oc(=O)cc(C)c4cc3OCC(O)Cn3cnc4cc(C)c(C)cc43)c2cc1C (stereo not drawn) | 64 (≈ 107 µM) | 16 (≈ 26.8 µM) | 64 (≈ 107 µM) | 32 (≈ 53.6 µM) | 16 (≈ 26.8 µM) | 16 (≈ 26.8 µM) | 32 (≈ 53.6 µM) | 128 (≈ 215 µM) | 0.61 | 16 (≈ 26.8 µM) | 4 (≈ 6.7 µM) | 32 (≈ 53.6 µM) |
| Cc1cc(=O)oc2cc(OCC(O)Cn3cncn3)c(OCC(O)Cn3cncn3)cc12 (stereo not drawn) | 32 (≈ 72.3 µM) | 32 (≈ 72.3 µM) | 32 (≈ 72.3 µM) | 8 (≈ 18.1 µM) | 16 (≈ 36.2 µM) | 32 (≈ 72.3 µM) | 1 (≈ 2.26 µM) | 16 (≈ 36.2 µM) | 0.65 | 1 (≈ 2.26 µM) | 4 (≈ 9.04 µM) | 4 (≈ 9.04 µM) |
| CCn1cc(C(=O)O)c(=O)c2cc(F)c(N3CCNCC3)cc21 [NORFLOXACIN] | 2 (≈ 6.26 µM) | 1 (≈ 3.13 µM) | – | 8 (≈ 25.1 µM) | 4 (≈ 12.5 µM) | – | 16 (≈ 50.1 µM) | 16 (≈ 50.1 µM) | – | – | – | – |
| Cc1cc(=O)oc2cc(OCC(O)CSc3nc4ccccc4[nH]3)ccc12 (stereo not drawn) | 16 (≈ 41.8 µM) | 64 (≈ 167 µM) | 16 (≈ 41.8 µM) | 32 (≈ 83.7 µM) | 64 (≈ 167 µM) | 64 (≈ 167 µM) | 0.5 (≈ 1.31 µM) | 32 (≈ 83.7 µM) | 0.49 | 32 (≈ 83.7 µM) | 0.5 (≈ 1.31 µM) | 16 (≈ 41.8 µM) |
| Cc1cc(=O)oc2cc(OCC(O)Cn3nnc4ccccc43)c(OCC(O)Cn3nnc4ccccc43)cc12 (stereo not drawn) | 16 (≈ 29.5 µM) | 32 (≈ 59 µM) | 256 (≈ 472 µM) | 32 (≈ 59 µM) | 64 (≈ 118 µM) | 32 (≈ 59 µM) | 32 (≈ 59 µM) | 64 (≈ 118 µM) | 0.48 | 8 (≈ 14.7 µM) | 16 (≈ 29.5 µM) | 16 (≈ 29.5 µM) |
| Cc1cc2ncn(CC(O)COc3ccc4c(C)cc(=O)oc4c3)c2cc1C (stereo not drawn) | 128 (≈ 338 µM) | 64 (≈ 169 µM) | 128 (≈ 338 µM) | 64 (≈ 169 µM) | 64 (≈ 169 µM) | 32 (≈ 84.6 µM) | 128 (≈ 338 µM) | 128 (≈ 338 µM) | 0.61 | 16 (≈ 42.3 µM) | 4 (≈ 10.6 µM) | 16 (≈ 42.3 µM) |
| Cc1cc(=O)oc2cc(OCC(O)Cn3cncn3)ccc12 (stereo not drawn) | 16 (≈ 53.1 µM) | 4 (≈ 13.3 µM) | 6 (≈ 19.9 µM) | 32 (≈ 106 µM) | 32 (≈ 106 µM) | 32 (≈ 106 µM) | 64 (≈ 212 µM) | 32 (≈ 106 µM) | 0.45 | 4 (≈ 13.3 µM) | 4 (≈ 13.3 µM) | 16 (≈ 53.1 µM) |
| OC(Cn1cncn1)(Cn1cncn1)c1ccc(F)cc1F [FLUCONAZOLE] | – | – | 256 (≈ 836 µM) | – | – | 16 (≈ 52.2 µM) | – | – | – | 1 (≈ 3.27 µM) | 8 (≈ 26.1 µM) | 4 (≈ 13.1 µM) |
| Cc1cc(=O)oc2cc(OCC(O)Cn3cnc4ccccc43)ccc12 (stereo not drawn) | 512 (≈ 1460 µM) | > 512 | > 512 | 512 (≈ 1460 µM) | 512 (≈ 1460 µM) | 512 (≈ 1460 µM) | 128 (≈ 365 µM) | 128 (≈ 365 µM) | 0.55 | 128 (≈ 365 µM) | 512 (≈ 1460 µM) | 128 (≈ 365 µM) |
| Cc1cc(=O)oc2cc(OCC3CO3)cc(OCC3CO3)c12 (stereo not drawn) | 8 (≈ 26.3 µM) | 8 (≈ 26.3 µM) | 16 (≈ 52.6 µM) | 64 (≈ 210 µM) | 4 (≈ 13.1 µM) | 8 (≈ 26.3 µM) | 0.5 (≈ 1.64 µM) | 4 (≈ 13.1 µM) | – | 8 (≈ 26.3 µM) | 16 (≈ 52.6 µM) | 8 (≈ 26.3 µM) |
| Cc1cc(=O)oc2cc(OCC(O)CSc3nc4ccccc4[nH]3)c(OCC(O)CSc3nc4ccccc4[nH]3)cc12 (stereo not drawn) | 32 (≈ 52.9 µM) | 16 (≈ 26.5 µM) | 64 (≈ 106 µM) | 64 (≈ 106 µM) | 32 (≈ 52.9 µM) | 16 (≈ 26.5 µM) | 0.5 (≈ 0.827 µM) | 64 (≈ 106 µM) | 0.58 | 8 (≈ 13.2 µM) | 2 (≈ 3.31 µM) | 16 (≈ 26.5 µM) |
| Cc1cc(=O)oc2cc(OCC(O)Cn3nnc4ccccc43)ccc12 (stereo not drawn) | 32 (≈ 91.1 µM) | 32 (≈ 91.1 µM) | 256 (≈ 729 µM) | 16 (≈ 45.5 µM) | 64 (≈ 182 µM) | 8 (≈ 22.8 µM) | 16 (≈ 45.5 µM) | 16 (≈ 45.5 µM) | 0.6 | 4 (≈ 11.4 µM) | 16 (≈ 45.5 µM) | 16 (≈ 45.5 µM) |
| Cc1cc(=O)oc2cc(OCC3CO3)ccc12 (stereo not drawn) | 4 (≈ 17.2 µM) | 8 (≈ 34.4 µM) | 1 (≈ 4.31 µM) | 128 (≈ 551 µM) | 4 (≈ 17.2 µM) | 1 (≈ 4.31 µM) | 0.5 (≈ 2.15 µM) | 2 (≈ 8.61 µM) | – | 16 (≈ 68.9 µM) | 32 (≈ 138 µM) | 8 (≈ 34.4 µM) |
